The source made the active and inactive calls. The calls are words filed in the database; no cut-off is given here.
Legend:
K562 [1] = test: Cell cycle arrest in human K562 cells as assessed as accumulation at sub-G1 phase at 0.1 uM after 24 hrs by propidium iodide staining-based flow cytometric analysis relative to control; type: functional
MCF7 [2] = test: Cell cycle arrest in human MCF7 cells as assessed as accumulation at S phase at 1 uM after 48 hrs by propidium iodide staining-based flow cytometric analysis relative to control; type: functional
SW-620 [3] = test: Cell cycle arrest in human SW620 cells as assessed as accumulation at G2/M phase at 0.1 uM after 24 hrs by propidium iodide staining-based flow cytometric analysis relative to control; type: functional
SW-620 [4] = test: Cell cycle arrest in human SW620 cells as assessed as accumulation at sub-G1 phase at 0.1 uM after 24 hrs by propidium iodide staining-based flow cytometric analysis relative to control; type: functional
K562 [5] = test: Antiproliferative activity against apoptosis-resistant, Philadelphia chromosome-positive human K562 cells after 72 hrs by PrestoBlue colorimetric assay; type: functional, cell-based; conditions: K562, 72 h
MIA PaCa-2 = test: (§1) Antiproliferative activity against human MIAPaCa2 cells after 72 hrs by MTT assay; type: functional, cell-based
[6] = as §1; type: functional, cell-based; conditions: MIA PaCa-2, 72 h
MCF7 [7] = test: Cell cycle arrest in human MCF7 cells as assessed as accumulation at sub-G1 phase at 1 uM after 48 hrs by propidium iodide staining-based flow cytometric analysis relative to control; type: functional
MCF7 [8] = test: Cell cycle arrest in human MCF7 cells as assessed as accumulation at S phase at 0.1 uM after 24 hrs by propidium iodide staining-based flow cytometric analysis relative to control; type: functional
WI-38 [9] = test: Antiproliferative activity against human WI38 cells after 72 hrs by MTT assay; type: cell-based
MCF7 [10] = test: Antiproliferative activity against human MCF7 cells after 72 hrs by MTT assay; type: functional, cell-based
SW-620 [11] = test: Antiadhesive activity against human SW620 cells at 5 uM after 2 to 24 hrs by crystal-violet staining-based microscopic analysis; type: functional, cell-based
SW-620 [12] = test: Cell cycle arrest in human SW620 cells as assessed as accumulation at G1 phase at 0.1 uM after 48 hrs by propidium iodide staining-based flow cytometric analysis relative to control; type: functional
K562 [13] = test: Cell cycle arrest in human K562 cells as assessed as accumulation at sub-G1 phase at 1 uM after 48 hrs by propidium iodide staining-based flow cytometric analysis relative to control; type: functional
MCF7 [14] = test: Cell cycle arrest in human MCF7 cells as assessed as accumulation at sub-G1 phase at 0.1 uM after 48 hrs by propidium iodide staining-based flow cytometric analysis relative to control; type: functional
WI-38 [15] = test: Cell cycle arrest in human WI38 cells as assessed as accumulation at sub-G1 phase at 1 uM after 24 hrs by propidium iodide staining-based flow cytometric analysis relative to control; conditions: wi-38, 24 h
WI-38 [16] = test: Cell cycle arrest in human WI38 cells as assessed as accumulation at G1 phase at 0.1 uM after 48 hrs by propidium iodide staining-based flow cytometric analysis relative to control; conditions: wi-38, 48 h
WI-38 [17] = test: Cell cycle arrest in human WI38 cells as assessed as accumulation at S phase at 1 uM after 24 hrs by propidium iodide staining-based flow cytometric analysis relative to control; conditions: wi-38, 24 h
WI-38 [18] = test: Cell cycle arrest in human WI38 cells as assessed as accumulation at G2/M phase at 0.1 uM after 48 hrs by propidium iodide staining-based flow cytometric analysis relative to control; conditions: wi-38, 48 h
K562 [19] = test: Cell cycle arrest in human K562 cells as assessed as accumulation at S phase at 0.5 uM after 48 hrs by propidium iodide staining-based flow cytometric analysis relative to control; type: functional
MCF7 [20] = test: Cell cycle arrest in human MCF7 cells as assessed as accumulation at G1 phase at 0.1 uM after 48 hrs by propidium iodide staining-based flow cytometric analysis relative to control; type: functional
K562 [21] = test: Cell cycle arrest in human K562 cells as assessed as accumulation at G2/M phase at 0.5 uM after 48 hrs by propidium iodide staining-based flow cytometric analysis relative to control; type: functional
SW-620 [22] = test: Cell cycle arrest in human SW620 cells as assessed as accumulation at G2/M phase at 1 uM after 48 hrs by propidium iodide staining-based flow cytometric analysis relative to control; type: functional
WI-38 [23] = test: Cell cycle arrest in human WI38 cells as assessed as accumulation at G2/M phase at 1 uM after 24 hrs by propidium iodide staining-based flow cytometric analysis relative to control; conditions: wi-38, 24 h
SW-620 [24] = test: Cell cycle arrest in human SW620 cells as assessed as accumulation at G1 phase at 0.1 uM after 24 hrs by propidium iodide staining-based flow cytometric analysis relative to control; type: functional
WI-38 [25] = test: Cell cycle arrest in human WI38 cells as assessed as accumulation at sub-G1 phase at 1 uM after 48 hrs by propidium iodide staining-based flow cytometric analysis relative to control; conditions: wi-38, 48 h
K562 [26] = test: Cell cycle arrest in human K562 cells as assessed as accumulation at sub-G1 phase at 0.1 uM after 48 hrs by propidium iodide staining-based flow cytometric analysis relative to control; type: functional
MCF7 [27] = test: Cell cycle arrest in human MCF7 cells as assessed as accumulation at G2/M phase at 1 uM after 24 hrs by propidium iodide staining-based flow cytometric analysis relative to control; type: functional
MCF7 [28] = test: Cell cycle arrest in human MCF7 cells as assessed as accumulation at G1 phase at 1 uM after 24 hrs by propidium iodide staining-based flow cytometric analysis relative to control; type: functional
K562 [29] = test: Cell cycle arrest in human K562 cells as assessed as accumulation at G1 phase at 1 uM after 48 hrs by propidium iodide staining-based flow cytometric analysis relative to control; type: functional
MCF7 [30] = test: Cell cycle arrest in human MCF7 cells as assessed as accumulation at S phase at 0.1 uM after 48 hrs by propidium iodide staining-based flow cytometric analysis relative to control; type: functional
BJ = test: Antiadhesive activity against human BJ cells at 5 uM after 2 to 24 hrs by crystal-violet staining-based microscopic analysis; type: ADME, cell-based
K562 [31] = test: Cell cycle arrest in human K562 cells as assessed as accumulation at S phase at 0.1 uM after 24 hrs by propidium iodide staining-based flow cytometric analysis relative to control; type: functional
MCR = test: Antiproliferative activity against human MCR cells after 72 hrs by MTT assay; type: cell-based; conditions: human, mcr
WI-38 [32] = test: Cell cycle arrest in human WI38 cells as assessed as accumulation at G1 phase at 1 uM after 48 hrs by propidium iodide staining-based flow cytometric analysis relative to control; conditions: wi-38, 48 h
SW-620 [33] = test: Cell cycle arrest in human SW620 cells as assessed as accumulation at S phase at 1 uM after 24 hrs by propidium iodide staining-based flow cytometric analysis relative to control; type: functional
WI-38 [34] = test: Cell cycle arrest in human WI38 cells as assessed as accumulation at sub-G1 phase at 0.1 uM after 24 hrs by propidium iodide staining-based flow cytometric analysis relative to control; conditions: wi-38, 24 h
SW-620 [35] = test: Cell cycle arrest in human SW620 cells as assessed as accumulation at G2/M phase at 0.1 uM after 48 hrs by propidium iodide staining-based flow cytometric analysis relative to control; type: functional

Structure (SMILES): COCn1c(CC(COCc2ccccc2)COCc2ccccc2)c(C)c(=O)n(COC)c1=O
- Activity (K562 [1]): 2.2%
- Activity (MCF7 [2]): 4.9%
- Activity (SW-620 [3]): 21.7%
- Activity (SW-620 [4]): 4.3%
- IC50 (K562 [5]): 600 nM
- Activity (MIA PaCa-2): Dose-dependent effect
- IC50 [6]: 500 nM
- Activity (MCF7 [7]): 78.9%
- Activity (MCF7 [8]): 9.7%
- IC50 (WI-38 [9]; Homo sapiens, WI-38, 72 h): 300 nM
- Activity (WI-38 [9]; human, wi-38, 72 h): Dose-dependent effect
- Activity (MCF7 [10]): Dose-dependent effect
- IC50 (MCF7 [10]; MCF7, 72 h): 400 nM
- Activity (SW-620 [11]): Active
- Activity (SW-620 [12]): 49.7%
- Activity (K562 [13]): 4.2%
- Activity (MCF7 [14]): 50.5%
- Activity (WI-38 [15]): 21%
- Activity (WI-38 [16]): 48.5%
- Activity (WI-38 [17]): 2.4%
- Activity (WI-38 [18]): 5.7%
- Activity (K562 [19]): 18.2%
- Activity (MCF7 [20]): 23.8%
- Activity (K562 [21]): 3.9%
- Activity (SW-620 [22]): 15.8%
- Activity (WI-38 [23]): 5.1%
- Activity (SW-620 [24]): 51.5%
- Activity (WI-38 [25]): 47.9%
- Activity (K562 [26]): 3%
- Activity (MCF7 [27]): 8.7%
- Activity (MCF7 [28]): 14.8%
- Activity (K562 [29]): 51.8%
- Activity (MCF7 [30]): 11.9%
- Activity (BJ): Toxic
- Activity (K562 [31]): 28.6%
- Activity (MCR): Dose-dependent effect
- Activity (WI-38 [32]): 45.5%
- Activity (SW-620 [33]): 16.1%
- Activity (WI-38 [34]): 21.9%
- Activity (SW-620 [35]): 15.5%

From ChEMBL document CHEMBL3286303, “Synthesis and in vitro antiproliferative evaluation of novel N-alkylated 6-isobutyl- and propyl pyrimidine derivatives” (Bioorg Med Chem Lett, 2014)
